According to the supplement of paper PMC10307832:

What was measured:
Experiment in all cases: relative viability (nuclei count vs DMSO), 5 days (fraction); higher = more cells survive
[1] = compound: COc1ncc(-c2ccc3nccc(-c4ccnnc4)c3c2)cc1NS(=O)(=O)c1ccc(F)cc1F [Omipalisib] + Cc1nc(NC(=O)N2CCC[C@H]2C(N)=O)sc1-c1ccnc(C(C)(C)C(F)(F)F)c1 [Alpelisib] (partner 2 µM)
Summary of the method: (§1)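 Each reported value is a median over duplicate plates. It expresses relative viability: treated-well nuclei count divided by vehicle-well nuclei count. Lung cancer cell lines in 1536-well plates were dosed by pin tool a day after seeding, alone with one drug or with a fixed anchor-drug dose plus five library-drug doses (not always all listed) in √10 steps, and nuclei were counted after 5 days.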

[2] = compound: COc1ncc(-c2ccc3nccc(-c4ccnnc4)c3c2)cc1NS(=O)(=O)c1ccc(F)cc1F [Omipalisib] + CS(=O)(=O)N1CCN(Cc2cc3nc(-c4cccc5[nH]ncc45)nc(N4CCOCC4)c3s2)CC1 [Pictilisib] (partner 1 µM)
Summary of the method: as §1

[3] = compound: COc1ncc(-c2ccc3nccc(-c4ccnnc4)c3c2)cc1NS(=O)(=O)c1ccc(F)cc1F [Omipalisib] + C[C@]1(O)C[C@@H](c2nc(-c3ccc4ccc(-c5ccccc5)nc4c3)c3c(N)nccn32)C1 [Linsitinib] (partner 1 µM)
Summary of the method: as §1

[4] = compound: COc1ncc(-c2ccc3nccc(-c4ccnnc4)c3c2)cc1NS(=O)(=O)c1ccc(F)cc1F [Omipalisib] + C[C@@H](Oc1cc(-c2cnn(C3CCNCC3)c2)cnc1N)c1c(Cl)ccc(F)c1Cl [Crizotinib] (partner 1 µM)
Summary of the method: as §1

[5] = compound: COc1ncc(-c2ccc3nccc(-c4ccnnc4)c3c2)cc1NS(=O)(=O)c1ccc(F)cc1F [Omipalisib] + COc1cc2c(Oc3ccc(NC(=O)C4(C(=O)Nc5ccc(F)cc5)CC4)cc3F)ccnc2cc1OCCCN1CCOCC1 [Foretinib] (partner 0.25 µM)
Summary of the method: as §1

[6] = compound: COc1ncc(-c2ccc3nccc(-c4ccnnc4)c3c2)cc1NS(=O)(=O)c1ccc(F)cc1F [Omipalisib] + O=C(c1cc(Cc2n[nH]c(=O)c3ccccc23)ccc1F)N1CCN(C(=O)C2CC2)CC1 [Olaparib] (partner 8 µM)
Summary of the method: as §1

[7] = compound: COc1ncc(-c2ccc3nccc(-c4ccnnc4)c3c2)cc1NS(=O)(=O)c1ccc(F)cc1F [Omipalisib] + CC1(C)CCC(c2ccc(Cl)cc2)=C(CN2CCN(c3ccc(C(=O)NS(=O)(=O)c4ccc(N[C@H](CCN5CCOCC5)CSc5ccccc5)c(S(=O)(=O)C(F)(F)F)c4)cc3)CC2)C1 [Navitoclax] (partner 0.5 µM)
Summary of the method: as §1

[8] = compound: COc1ncc(-c2ccc3nccc(-c4ccnnc4)c3c2)cc1NS(=O)(=O)c1ccc(F)cc1F [Omipalisib] + CC(C)C[C@H](NC(=O)[C@H](Cc1ccccc1)NC(=O)c1cnccn1)B(O)O [Bortezomib] (partner 0.002 µM)
Summary of the method: as §1

[9] = compound: COc1ncc(-c2ccc3nccc(-c4ccnnc4)c3c2)cc1NS(=O)(=O)c1ccc(F)cc1F [Omipalisib] + O=C(CCCCCCC(=O)Nc1ccccc1)NO [Vorinostat] (partner 1 µM)
Summary of the method: as §1

[10] = compound: COc1ncc(-c2ccc3nccc(-c4ccnnc4)c3c2)cc1NS(=O)(=O)c1ccc(F)cc1F [Omipalisib] + CS(=O)(=O)CCNCc1ccc(-c2ccc3ncnc(Nc4ccc(OCc5cccc(F)c5)c(Cl)c4)c3c2)o1 [Lapatinib] (partner 2 µM)
Summary of the method: as §1

[11] = compound: COc1ncc(-c2ccc3nccc(-c4ccnnc4)c3c2)cc1NS(=O)(=O)c1ccc(F)cc1F [Omipalisib]
Summary of the method: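 Viability here means nuclei in treated wells divided by nuclei in vehicle wells, reported as the median across plates. Only plates with control CV below 25% and at least one doubling passed. Lung cancer cell lines in 1536-well plates were exposed to five √10-spaced library-drug doses for 5 days and counted from 4× Hoechst images in MetaXpress.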

[12] = compound: COc1ncc(-c2ccc3nccc(-c4ccnnc4)c3c2)cc1NS(=O)(=O)c1ccc(F)cc1F [Omipalisib] + Nc1nc2[nH]cc(CCc3ccc(C(=O)N[C@@H](CCC(=O)O)C(=O)O)cc3)c2c(=O)[nH]1 [Pemetrexed] (partner 0.2 µM)
Summary of the method: as §1

[13] = compound: COc1ncc(-c2ccc3nccc(-c4ccnnc4)c3c2)cc1NS(=O)(=O)c1ccc(F)cc1F [Omipalisib] + Cc1cc(Nc2cc(N3CCN(C)CC3)nc(Sc3ccc(NC(=O)C4CC4)cc3)n2)n[nH]1 [Tozasertib] (partner 0.1 µM)
Summary of the method: as §1

[14] = compound: COc1ncc(-c2ccc3nccc(-c4ccnnc4)c3c2)cc1NS(=O)(=O)c1ccc(F)cc1F [Omipalisib] + COc1cccc2cc(-c3nc([C@H]4CC[C@H](C(=O)O)CC4)n4ncnc(N)c34)[nH]c12 [OSI-027] (partner 0.5 µM)
Summary of the method: as §1

[15] = compound: COc1ncc(-c2ccc3nccc(-c4ccnnc4)c3c2)cc1NS(=O)(=O)c1ccc(F)cc1F [Omipalisib] + CC(=O)Nc1cccc(-n2c(=O)n(C3CC3)c(=O)c3c(Nc4ccc(I)cc4F)n(C)c(=O)c(C)c32)c1 [Trametinib] (partner 0.02 µM)
Summary of the method: as §1

[16] = compound: COc1ncc(-c2ccc3nccc(-c4ccnnc4)c3c2)cc1NS(=O)(=O)c1ccc(F)cc1F [Omipalisib] + CC(=O)c1c(C)c2cnc(Nc3ccc(N4CCNCC4)cn3)nc2n(C2CCCC2)c1=O [Palbociclib] (partner 0.5 µM)
Summary of the method: as §1

[17] = compound: COc1ncc(-c2ccc3nccc(-c4ccnnc4)c3c2)cc1NS(=O)(=O)c1ccc(F)cc1F [Omipalisib] + Nc1ncn([C@H]2C[C@H](O)[C@@H](CO)O2)c(=O)n1 [Decitabine] (partner 2 µM)
Summary of the method: as §1

[18] = compound: COc1ncc(-c2ccc3nccc(-c4ccnnc4)c3c2)cc1NS(=O)(=O)c1ccc(F)cc1F [Omipalisib] + NC(=O)Nc1cc(-c2cccc(F)c2)sc1C(=O)N[C@H]1CCCNC1 [AZD7762] (partner 0.2 µM)
Summary of the method: as §1

[19] = compound: COc1ncc(-c2ccc3nccc(-c4ccnnc4)c3c2)cc1NS(=O)(=O)c1ccc(F)cc1F [Omipalisib] + N=C(N)NC(=N)NCCc1ccccc1 [Phenformin] (partner 250 µM)
Summary of the method: as §1

IA-LM
relative viability ([1]; first compound 0.0003 µM): 0.785
relative viability ([1]; first compound 0.003 µM): 0.793
relative viability ([1]; first compound 0.03 µM): 0.373
relative viability ([2]; first compound 0.0003 µM): 0.45
relative viability ([2]; first compound 0.003 µM): 0.317
relative viability ([2]; first compound 0.03 µM): 0.197
relative viability ([3]; first compound 0.0003 µM): 0.636
relative viability ([3]; first compound 0.003 µM): 0.571
relative viability ([3]; first compound 0.03 µM): 0.243
relative viability ([4]; first compound 0.0003 µM): 0.906
relative viability ([4]; first compound 0.003 µM): 0.682
relative viability ([4]; first compound 0.03 µM): 0.288
relative viability ([5]; first compound 0.0003 µM): 1.27
relative viability ([5]; first compound 0.003 µM): 0.997
relative viability ([5]; first compound 0.03 µM): 0.683
relative viability ([6]; first compound 0.0003 µM): 0.903
relative viability ([6]; first compound 0.003 µM): 0.85
relative viability ([6]; first compound 0.03 µM): 0.602
relative viability ([7]; first compound 0.0003 µM): 0.92
relative viability ([7]; first compound 0.003 µM): 0.847
relative viability ([7]; first compound 0.03 µM): 0.251
relative viability ([8]; first compound 0.0003 µM): 1.01
relative viability ([8]; first compound 0.003 µM): 0.818
relative viability ([8]; first compound 0.03 µM): 0.258
relative viability ([9]; first compound 0.0003 µM): 0.873
relative viability ([9]; first compound 0.003 µM): 0.916
relative viability ([9]; first compound 0.03 µM): 0.25
relative viability ([10]; first compound 0.0003 µM): 0.95
relative viability ([10]; first compound 0.003 µM): 0.703
relative viability ([10]; first compound 0.03 µM): 0.251
relative viability ([11]; 0.0003 µM): 0.888
relative viability ([11]; 0.003 µM): 0.764
relative viability ([11]; 0.03 µM): 0.355

NCI-H1648
relative viability ([12]; first compound 0.0003 µM): 0.754
relative viability ([12]; first compound 0.003 µM): 0.619
relative viability ([12]; first compound 0.03 µM): 0.413
relative viability ([13]; first compound 0.0003 µM): 0.322
relative viability ([13]; first compound 0.003 µM): 0.408
relative viability ([13]; first compound 0.03 µM): 0.184
relative viability ([14]; first compound 0.0003 µM): 0.253
relative viability ([14]; first compound 0.003 µM): 0.291
relative viability ([14]; first compound 0.03 µM): 0.26
relative viability ([15]; first compound 0.0003 µM): 0.362
relative viability ([15]; first compound 0.003 µM): 0.407
relative viability ([15]; first compound 0.03 µM): 0.249
relative viability ([6]; first compound 0.0003 µM): 0.384
relative viability ([6]; first compound 0.003 µM): 0.392
relative viability ([6]; first compound 0.03 µM): 0.202
relative viability ([16]; first compound 0.0003 µM): 0.277
relative viability ([16]; first compound 0.003 µM): 0.23
relative viability ([16]; first compound 0.03 µM): 0.29
relative viability ([17]; first compound 0.0003 µM): 0.445
relative viability ([17]; first compound 0.003 µM): 0.363
relative viability ([17]; first compound 0.03 µM): 0.356
relative viability ([18]; first compound 0.0003 µM): 0.644
relative viability ([18]; first compound 0.003 µM): 0.843
relative viability ([18]; first compound 0.03 µM): 0.386
relative viability ([9]; first compound 0.0003 µM): 0.548
relative viability ([9]; first compound 0.003 µM): 0.396
relative viability ([9]; first compound 0.03 µM): 0.228
relative viability ([11]; 0.0003 µM): 0.913
relative viability ([11]; 0.003 µM): 0.504
relative viability ([11]; 0.03 µM): 0.278

EBC-1
relative viability ([1]; first compound 0.0003 µM): 0.906
relative viability ([1]; first compound 0.003 µM): 0.692
relative viability ([1]; first compound 0.03 µM): 0.259
relative viability ([2]; first compound 0.0003 µM): 0.428
relative viability ([2]; first compound 0.003 µM): 0.395
relative viability ([2]; first compound 0.03 µM): 0.191
relative viability ([3]; first compound 0.0003 µM): 0.822
relative viability ([3]; first compound 0.003 µM): 0.521
relative viability ([3]; first compound 0.03 µM): 0.405
relative viability ([4]; first compound 0.0003 µM): 0.218
relative viability ([4]; first compound 0.003 µM): 0.183
relative viability ([4]; first compound 0.03 µM): 0.212
relative viability ([5]; first compound 0.0003 µM): 0.114
relative viability ([5]; first compound 0.003 µM): 0.102
relative viability ([5]; first compound 0.03 µM): 0.0896
relative viability ([6]; first compound 0.0003 µM): 0.67
relative viability ([6]; first compound 0.003 µM): 0.57
relative viability ([6]; first compound 0.03 µM): 0.193
relative viability ([7]; first compound 0.0003 µM): 0.337
relative viability ([7]; first compound 0.003 µM): 0.243
relative viability ([7]; first compound 0.03 µM): 0.137
relative viability ([8]; first compound 0.0003 µM): 0.605
relative viability ([8]; first compound 0.003 µM): 0.549
relative viability ([8]; first compound 0.03 µM): 0.263
relative viability ([10]; first compound 0.0003 µM): 0.211
relative viability ([10]; first compound 0.003 µM): 0.216
relative viability ([10]; first compound 0.03 µM): 0.202
relative viability ([11]; 0.0003 µM): 0.957
relative viability ([11]; 0.003 µM): 0.821
relative viability ([11]; 0.03 µM): 0.325

A549
relative viability ([1]; first compound 0.0003 µM): 0.665
relative viability ([1]; first compound 0.003 µM): 0.55
relative viability ([1]; first compound 0.03 µM): 0.179
relative viability ([2]; first compound 0.0003 µM): 0.457
relative viability ([2]; first compound 0.003 µM): 0.454
relative viability ([2]; first compound 0.03 µM): 0.254
relative viability ([3]; first compound 0.0003 µM): 0.438
relative viability ([3]; first compound 0.003 µM): 0.421
relative viability ([3]; first compound 0.03 µM): 0.218
relative viability ([4]; first compound 0.0003 µM): 0.64
relative viability ([4]; first compound 0.003 µM): 0.531
relative viability ([4]; first compound 0.03 µM): 0.139
relative viability ([5]; first compound 0.0003 µM): 0.892
relative viability ([5]; first compound 0.003 µM): 0.838
relative viability ([5]; first compound 0.03 µM): 0.319
relative viability ([6]; first compound 0.0003 µM): 0.206
relative viability ([6]; first compound 0.003 µM): 0.174
relative viability ([6]; first compound 0.03 µM): 0.0441
relative viability ([7]; first compound 0.0003 µM): 1.07
relative viability ([7]; first compound 0.003 µM): 0.91
relative viability ([7]; first compound 0.03 µM): 0.437
relative viability ([19]; first compound 0.0003 µM): 0.157
relative viability ([19]; first compound 0.003 µM): 0.113
relative viability ([19]; first compound 0.03 µM): 0.0802
relative viability ([17]; first compound 0.0003 µM): 0.304
relative viability ([17]; first compound 0.003 µM): 0.224
relative viability ([17]; first compound 0.03 µM): 0.176
relative viability ([10]; first compound 0.0003 µM): 0.912
relative viability ([10]; first compound 0.003 µM): 0.715
relative viability ([10]; first compound 0.03 µM): 0.227
relative viability ([11]; 0.0003 µM): 0.923
relative viability ([11]; 0.003 µM): 0.625
relative viability ([11]; 0.03 µM): 0.323
